Laboratory results published in US7205304B2, “Sulfonyl-Derivatives as novel inhibitors of histone deacetylase” (Janssen Pharmaceutica N.V., priority 2002, dated 2007).
In brackets after ≈: the same amount, converted by molar mass. Like-named read-outs stand apart in the source and are kept apart here.

Columns and labels:
[1] = system: A2780 ovarian carcinoma cells; assay: Antiproliferative activity on A2780 cells (MTT); type: cell-based, human; conditions: Homo sapiens, four days of incubation, read-out: Cellular activity pIC50 (converted)
Method in brief: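 A2780 ovarian carcinoma cells were seeded at 1500 cells/well and exposed to compound for four days, with DMSO ≤0.1%. Viability was measured by MTT (2 h, 37° C) and expressed as a percentage of untreated controls after blank subtraction. Initial single-point testing was at 10^−6 M, then full curves gave pIC50.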

[2] = Kinetic solubility in aqueous media (nephelometry); type: physicochemical; conditions: phosphate citrate buffer, pH 7.4, aqueous buffer, kinetic from dmso stock, phosphate citrate buffer pH 7.4, turbidity of three dilution steps; read-out: Solubility Score
Method in brief: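 DMSO stock (5 mM) diluted in three consecutive steps into phosphate citrate buffer pH 7.4, in triplicate; turbidity of each dilution read by nephelometry immediately after the last step. Compounds ranked into 3 classes: score 3 if first dilution clear, 2 if first unclear but second clear.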

[3] = system: A 2780 ovarium carcinoma cells; assay: A2780 mouse xenograft model; type: in vivo; conditions: orally 10, 20 and 40 mpk once daily, day 4 to day 32; two independent studies; maximal inhibition once at 20 mpk, once at 40 mpk
Method: Immunodeficient mice were injected subcutaneously with A 2780 ovarium carcinoma cells (10^7cells/200 μl/mouse). Subsequently they were orally treated with 10, 20 and 40 mpk of compound once daily between day 4 and day 32. The compound was dissolved in 0.9% NaCl, 20% β-cyclodextrine. On day 32 tumours were harvested and individual tumour weight of each mouse was determined. Each experiment included 10 mice.

[4] = target: histone deacetylase (HeLa nuclear extracts); assay: In vitro assay for inhibition of histone deacetylase; type: biochemical; conditions: [3H]acetylated histone H4 peptide substrate
[5] = not given; remark: listed apart in the source

% metabolism of the compound after 15 min of incubation (human, 15 min, 5 μM) [%] | solubility [2] [µM] | Enzyme activity pIC50 [4] | IC50 ([1]; A2780, 96 h) [nM] | melting point [5] [°C] | Structure (SMILES) | IC50 ([1]; 96 h) [nM] | antitumoural effect (tumour weight on day 32) [3] | % metabolism of the compound after 15 min of incubation (5 μM compound, microsomes 1 mg/ml, NADPH-generating system) [%]
 | < 75.8 | 6.491 | 1010 | > 260 | O=C(NO)c1ccc(N2CCN(S(=O)(=O)c3ccc4ccccc4c3)CC2)nn1 [Compound 120] |  |  | 
 | > 454 | 6.833 | 2770 | 220 | O=C(NO)c1cnc(N2CCN(S(=O)(=O)c3ccc4ccccc4c3)C(CO)C2)nc1 (stereo not shown) [Compound 121] |  |  | 
 | > 454 | 6.787 | 2580 | 114 | CN(C)CC1CN(c2ncc(C(=O)NO)cn2)CCN1S(=O)(=O)c1ccc2ccccc2c1 (stereo not shown) [Compound 123] |  |  | 
 | < 75.8 | 8.456 | 103 | 190.7 | CN(C)Cc1ccccc1-c1ccc(S(=O)(=O)N2CCN(c3ncc(C(=O)NO)cn3)CC2)cc1 [Compound 126] |  |  | 
 | > 454 | 7.107 | 206 | > 260 | O=C(NO)c1cnc(N2CCN(S(=O)(=O)c3ccc(-c4cccc(CCO)c4)cc3)CC2)nc1 [Compound 129] |  |  | 

Continued, compound first:

Structure (SMILES) | % metabolism of the compound after 15 min of incubation (human, 15 min, 5 μM) [%] | solubility [2] [µM] | Enzyme activity pIC50 [4] | IC50 ([1]; A2780, 96 h) [nM] | melting point [5] [°C] | IC50 ([1]; 96 h) [nM] | antitumoural effect (tumour weight on day 32) [3] | % metabolism of the compound after 15 min of incubation (5 μM compound, microsomes 1 mg/ml, NADPH-generating system) [%]
COc1cc(N)c(Cl)cc1C(=O)NC1CCN(CCCOc2ccc(F)cc2)CC1OC (stereo not shown) [Cisapride] | 45 |  |  |  |  |  |  | 
O=C(NO)c1cnc(N2CCN(S(=O)(=O)c3ccc4ccccc4c3)CC2)nc1 [Compound 6] |  | 75.8 to 454 (≈ 31.3 to 188 µg/mL) |  |  |  | 46.1 | strong antitumoural effect at all doses | 
CCCO [propanol] |  |  |  |  |  |  |  | 25
